{"source": "patent US7395112B2", "about": "“Method and apparatus for treating tumors using low strength electric fields” (priority 2002, dated 2008)", "key": {"B16-F10.9 melanoma [1]": {"system": "B16-F10.9 melanoma", "test": "Rechallenge with B16-F10.9 cells of mice cured by LEFCT-EC", "type": "in vivo, C57BL/6 mice", "text": "FIG. 17 is a data plot depicting the cumulative survival of mice previously bearing B16-F10.9 melanoma and cured by LEFCT-EC with cisplatin or taxol following challenge with B16-F10.9 melanoma cells. Mice cured by LEF-chemotherapy that survived for 120-180 days after initial tumor inoculation, were challenged with 2×10^5 B16-F10.9 cells subcutaneously.\nEffect of curative LEFCT-EC treatment on generation of anti B16-F10.9 tumor resistance: The resistance of mice cured of B16-F10.9 melanoma by LEF-chemotherapy was analyzed by challenging such cured mice with a tumorigenic dose of B16-F 10.9 melanoma cells."}, "B16-F10.9 melanoma [2]": {"system": "B16-F10.9 melanoma", "test": "Surgery with taxol versus LEFCT-EC with taxol in B16-F10.9 melanoma", "type": "in vivo, C57BL/6 mice", "method": "Comparison of surgery and LEFCT-EC: To compare the efficacy of LEFCT-EC to that of conventional surgery and chemotherapy treatments, C57BL/6 male mice (8-12 weeks old) were injected with 10^5 B16-F10.9 cells subcutaneously. Once the tumors reached 5 mm in diameter (11-17 days following inoculation), they were surgically removed. One experimental group received a single dose of taxol (20 mg/kg) subcutaneously in close proximity to the site of the operation one day following tumorectomy."}, "[3]": {"system": "DA3 mammary adenocarcinoma", "test": "Winn assay: DA3 cells co-inoculated with splenocytes of cured mice", "type": "in vivo, BALB/c mice", "conditions": "10^5 DA3 cells + 10^7 splenocytes of mice cured via LEFCT-EC with taxol"}, "B16-F10.9 melanoma [4]": {"system": "B16-F10.9 melanoma", "test": "LEFCT-EC in mice bearing subcutaneous B16-F10.9 melanoma", "type": "in vivo, C57BL/6 mice", "conditions": "for Tumor size (mean ± standard error): 7 days after treatment", "method": "Animals: C57BL/6 male mice were obtained from the breeding colony of Tel-Aviv University, Israel. Mice were used at 8-12 weeks of age. Animal care and experimentation was carried out in accordance with Tel-Aviv University guidelines.\nMelanoma tumor cell line: The highly metastatic, poorly immunogenic B16-F10.9 (F10.9) subclone of the B16 melanoma cell line was used to generate melanoma tumors in mice (Eisenbach L. et al., 1984. Int J Cancer 34:567). Cells were maintained in DMEM supplemented with 100 U/ml penicillin, 100 μg/ml streptomycin, 4 mM glutamine, 1 mM sodium pyruvate, 1% non-essential amino acids and 10% heat-inactivated fetal calf serum (FCS); and were cultured at 37° C. in a humidified incubator in an atmosphere of 7% carbon dioxide and 93% air.\nTumor generation protocol: F10.9 tumors were induced in C57BL/6 mice by subcutaneous injection of 2×10^5 F10.9 cells. Mice were subjected to experimental treatments once tumors reached 5 mm in diameter (about 60-70 mm^3). Chemotherapeutic drugs: The following chemotherapeutic drugs used were: cis-platinum (II) diamminedichloride (cisplatin; #P-4394, Sigma, Israel), dissolved in PBS for injections; Taxol (Mead Johnson Oncology Products, A Bristol-Myers Squibb, USA), obtained as a sterile nonpyrogenic solution containing 6 mg/ml paclitaxel, 527 mg/ml of purified Cremophor EL (polyoxyethylated castor oil) and 5-FU (Abic, Israel).\nLow-strength electric field enhanced cancer therapy protocol: Mice were subjected to a single treatment of LEFCT-EC, once tumors reached 5 mm in diameter (11-17 days following tumor cell inoculation). Volumes of up to 100 μl of chemotherapeutic agents were injected into tumor loci, and exposures to electric fields were carried out 3-4 min following intratumoral injection of chemotherapeutic agents. To expose tumors to electric fields, stainless steel electrode needles (Karlsbader insect pins No 0. BioQuip Products, USA) soldered at their brassy ends with thin isolated copper wires were used. Electrodes were inserted to a depth of about 7 mm percutaneously into and in the immediate vicinity of the tumor; one cathode needle in the center of the tumor and three peripheral anodes, at a distance of about 5 mm from the cathode. The needles were connected to an electric pulse generator (Grass S48 Stimulator, USA). The field strength applied was about 40 V/cm; the repetition frequency, 500 Hz; and the pulse width, 180 μs. All mice were anesthetized prior to LEF treatment.\nStatistical analysis: Statistical analysis of survival times (Kaplan-Meir test), survival comparisons between groups (Mantel-Cox test) and tumor volume differences between groups (Kolmogorov-Smirnov test) were performed using StatSoft Statistica statistical software. The 10-15% mortality rate in the 5 days following LEF or LEF-chemotherapy was considered as treatment-caused, therefore such cases of mortality were excluded.\nTumor volume determination: performed as described above in Example 1 of the Examples section."}, "[5]": {"system": "DA3 mammary adenocarcinoma", "test": "LEFCT-EC in mice bearing DA3 mammary adenocarcinoma", "type": "in vivo, BALB/c mice", "method": "Animals: BALB/c female mice between the ages of 8 to 12 weeks obtained from the breeding colony of Tel-Aviv University, Israel were used in vivo tumor therapy experiments. Animal care and experimentation was carried out in accordance with Tel-Aviv University guidelines.\nTumor cell line: The highly metastatic, poorly immunogenic mammary adenocarcinoma cell line DA3 (Lopez D M. et al., 1981. J Natl Cancer Inst. 66:191) was used to generate mammary carcinoma tumors in mice. Cells were grown in DMEM supplemented with 100 U/ml penicillin, 100 μg/ml streptomycin, 4 mM glutamine, 1 mM sodium pyruvate, 1% non-essential amino acids and 10% heat-inactivated fetal calf serum (FCS), and cultured at 37° C. in a humidified incubator in an atmosphere of 7% carbon dioxide and 93% air. Tumors of this cell line grown to 1 cm in diameter produce metastatic cells, mainly in the lungs.\nReagents: Taxol (Mead Johnson Oncology Products, A Bristol-Myers Squibb, USA), obtained as a sterile nonpyrogenic solution containing 6 mg/ml paclitaxel, 527 mg/ml of purified Cremophor EL (polyoxyethylated castor oil) and 49.7% (v/v) dehydrated ethanol; and bleomycin (MegaPharm, Israel) were the anti cancer drugs used.\nLow-strength electric field enhanced cancer chemotherapy protocol: Mice were subjected to a single treatment of LEF-chemotherapy, once primary tumors reached 5 mm in diameter (about 60-70 mm^3) (11-17 days following subcutaneous tumor cell inoculation). Up to 100 μl of chemotherapeutic agents was injected into the tumor loci. The exposure to electric field was carried out as described above in Example 2 of the Examples section.\nEffect of LEFCT-EC using bleomycin or taxol on the survival of DA3 mammary adenocarcinoma bearing nice: BALB/c mice bearing DA3 mammary adenocarcinoma were treated by LEF-chemotherapy with intratumoral taxol (20 mg/kg) (FIG. 19) or bleomycin (30 U/kg) (FIG. 20) administration and their survival rate was compared with that of mice treated only with LEF or chemotherapy."}, "[6]": {"system": "DA3 mammary adenocarcinoma", "test": "Rechallenge with DA3 cells of mice cured by LEFCT-EC with taxol", "type": "in vivo, BALB/c mice", "conditions": "challenged with 10^5 DA3 cells", "method": "Effect of curative LEFCT-EC treatment with taxol on generation of anti DA3 tumor resistance: The resistance of mice previously cured of DA3 mammary carcinoma via LEFCT-EC treatment with taxol to tumor growth following challenge by inoculation with 10^5 DA3 cells 120-180 days following initial tumor inoculation was analyzed. […] The MSTs of first-time inoculated normal mice and challenged mice were 38.1 and 46.7 days, respectively. Thus, curative treatment of DA3 tumors via LEFCT-EC treatment with taxol has the capacity to induce significant protection against growth of such a tumor in cured mice challenged with a tumorigenic dose thereof."}, "[7]": {"conditions": "chemotherapy alone, intratumoral, no LEF"}}}
{"smiles": "CC(=O)O[C@H]1C(=O)[C@@]2(C)[C@H]([C@H](OC(=O)c3ccccc3)[C@]3(O)C[C@H](OC(=O)[C@H](O)[C@@H](NC(=O)c4ccccc4)c4ccccc4)C(C)=C1C3(C)C)[C@]1(OC(C)=O)CO[C@@H]1C[C@@H]2O", "note": "[taxol, paclitaxel]", "values": [{"measurement": "MST of challenged mice", "setting": "B16-F10.9 melanoma [1]; mice cured by LEFCT-EC with the drug, challenged with 2×10^5 B16-F10.9 cells", "result": 73.2, "unit": "days"}, {"measurement": "challenged mice that did not develop tumor", "setting": "B16-F10.9 melanoma [1]; mice previously treated by LEFCT-EC with taxol", "result": "about 23.5%"}, {"measurement": "cure rate", "setting": "B16-F10.9 melanoma [2]; LEF-chemotherapy with taxol", "result": 26, "unit": "%"}, {"measurement": "survival extension", "setting": "B16-F10.9 melanoma [2]; LEF-chemotherapy with taxol", "result": 84, "unit": "days"}, {"measurement": "MST", "setting": "B16-F10.9 melanoma [2]; surgery + taxol 20 mg/kg subcutaneously", "result": 55, "unit": "days"}, {"measurement": "cure rate", "setting": "B16-F10.9 melanoma [2]; surgery + taxol 20 mg/kg subcutaneously one day after tumorectomy", "result": 13, "unit": "%"}, {"measurement": "Mean survival time", "setting": "[3]", "result": 39, "unit": "days"}, {"measurement": "Tumor size", "setting": "[3]; 14 days after inoculation", "result": 143, "unit": "µL"}, {"measurement": "Tumor size (mean ± standard error)", "setting": "B16-F10.9 melanoma [4]; LEF-CT (drug + LEF), cisplatin 4 mg/kg, bleomycin 8 U/kg, 5-FU 150 mg/kg, taxol 20 mg/kg", "result": "71 ± 25", "unit": "mm^3"}, {"measurement": "mean survival time (MST)", "setting": "B16-F10.9 melanoma [4]; LEF-chemotherapy: intratumoral drug + LEF about 40 V/cm 12 min, 120 days (cisplatin) or 180 days (taxol, bleomycin) after inoculation", "result": 83.5, "unit": "days"}, {"measurement": "cure rate / animals alive and free of visible tumor", "setting": "B16-F10.9 melanoma [4]; LEF-chemotherapy, 180 days after tumor inoculation", "result": 26, "unit": "%"}, {"measurement": "effect of drug alone on survival", "setting": "B16-F10.9 melanoma [4]; [7]", "result": "no effect"}, {"measurement": "mean survival time (MST)", "setting": "B16-F10.9 melanoma [4]; [7]", "result": 36.7, "unit": "days"}, {"measurement": "Tumor size (mean ± standard error)", "setting": "B16-F10.9 melanoma [4]; intratumoral drug injection alone, same doses", "result": "927 ± 177", "unit": "mm^3"}, {"measurement": "LEFCT-EC treated mice that died two months and later after treatment with pulmonary metastatic foci, free of primary tumor", "setting": "B16-F10.9 melanoma [4]; pooled statement for cisplatin, taxol or bleomycin", "result": "About 10%"}, {"measurement": "survival time, Mean", "setting": "[5]; LEF-chemotherapy with the drug", "result": 73.8}, {"measurement": "survival time, Median", "setting": "[5]; LEF-chemotherapy with the drug", "result": 54.5}, {"measurement": "cure rate", "setting": "[5]; LEF-chemotherapy, intratumoral taxol 20 mg/kg or bleomycin 30 U/kg, 180 days after tumor inoculation", "result": 17, "unit": "%"}, {"measurement": "survival time, Mean", "setting": "[5]; drug alone, intratumoral", "result": 43.9}, {"measurement": "survival time, Median", "setting": "[5]; drug alone, intratumoral", "result": 48}, {"measurement": "MST of challenged mice", "setting": "[6]", "result": 46.7, "unit": "days"}]}
